Calls of active or inactive are those of the source. The rule behind the calls is not given here.
Tested on: rodent lifetime carcinogenesis bioassay, tumor incidence TD50
Assay: carcinogenic potency in animals, long-term in vivo studies, CPDB compilation (AID 1745844)

O=C1NS(=O)(=O)c2ccccc21
23200 mg/kg/day: TD50 (rat, strain Charles River CD (Sprague-Dawley), males, in feed, site: parathyroid, lesion: adenoma, dosed 142 weeks, study length 142 weeks)
60000 mg/kg/day: TD50 (rat, strain Charles River CD (Sprague-Dawley), males, in feed, site: liver, lesion: biliary cystadenoma, dosed 142 weeks, study length 142 weeks)
inactive: TD50 (mouse, strain CD-1 HaM/ICR, females, in feed, site: any site (literature study), lesion: several types, types named in the paper, dosed 104 weeks, study length 104 weeks) 26100 mg/kg/day | carcinogen call (mouse, strain CD-1 HaM/ICR, females, in feed, site: liver, lesion: one or several types, types not named, dosed 104 weeks, study length 104 weeks) negative | carcinogen call (mouse, strain CD-1 HaM/ICR, females, in feed, site: lung, lesion: one or several types, types not named, dosed 104 weeks, study length 104 weeks) negative | TD50 (mouse, strain CD-1 HaM/ICR, males, in feed, site: any site (literature study), lesion: several types, types named in the paper, dosed 104 weeks, study length 104 weeks) 881 mg/kg/day | carcinogen call (mouse, strain CD-1 HaM/ICR, males, in feed, site: liver, lesion: hepatoma, dosed 104 weeks, study length 104 weeks) negative | TD50 (mouse, strain CD-1 HaM/ICR, males, in feed, site: lung, lesion: one or several types, types not named, dosed 104 weeks, study length 104 weeks) 1360 mg/kg/day | carcinogen call (mouse, strain Swiss albino, females, in feed, site: liver, lesion: hepatoma, dosed 76 weeks, study length 76 weeks) negative | TD50 (mouse, strain Swiss albino, females, in feed, site: lung, lesion: one or several types, types not named, dosed 76 weeks, study length 76 weeks) 56300 mg/kg/day | carcinogen call (mouse, strain Swiss, females, in feed, site: urinary bladder, lesion: anaplastic carcinoma, dosed 91 weeks, study length 91 weeks) negative | carcinogen call (mouse, strain Swiss, males, in feed, site: urinary bladder, lesion: transitional-cell carcinoma, dosed 91 weeks, study length 91 weeks) negative | carcinogen call (rat, strain Analbuminaemic (Sprague-Dawley derived), males, in feed, site: urinary bladder, lesion: carcinoma, dosed 80 weeks, study length 80 weeks) negative | TD50 (rat, strain Charles River CD (Sprague-Dawley), females, in feed, site: liver, lesion: cholangiocarcinoma, dosed 113 weeks, study length 113 weeks) 78200 mg/kg/day | TD50 (rat, strain Charles River CD (Sprague-Dawley), females, in feed, site: liver, lesion: nodular hyperplasia, dosed 113 weeks, study length 113 weeks) 98400 mg/kg/day | carcinogen call (rat, strain Charles River CD (Sprague-Dawley), males, in feed, site: any site (literature study), lesion: several types, types named in the paper, dosed 104 weeks, study length 104 weeks) negative | carcinogen call (rat, strain Charles River CD (Sprague-Dawley), males, in feed, site: liver, lesion: hepatocellular carcinoma, dosed 113 weeks, study length 113 weeks) negative | carcinogen call (rat, strain Fischer 344, males, in feed, site: forestomach, lesion: papilloma, dosed 72 weeks, study length 73 weeks) negative | carcinogen call (rat, strain Fischer 344, males, in feed, site: urinary bladder, lesion: carcinoma, dosed 72 weeks, study length 73 weeks) negative | carcinogen call (rat, strain Fischer 344, males, in feed, site: urinary bladder, lesion: one or several types, types not named, dosed 52 weeks, study length 52 weeks) negative | carcinogen call (rat, strain Fischer 344, males, in feed, site: urinary bladder, lesion: one or several types, types not named, dosed 72 weeks, study length 72 weeks) negative | carcinogen call (rat, strain Fischer 344, males, in feed, site: urinary bladder, lesion: one or several types, types not named, dosed 102 weeks, study length 104 weeks) negative | carcinogen call (rat, strain Fischer 344, males, in feed, site: urinary bladder, lesion: one or several types, types not named, dosed 104 weeks, study length 104 weeks) negative | carcinogen call (rat, strain Fischer, males, in feed, site: urinary bladder, lesion: several types, types named in the paper, dosed 100 weeks, study length 104 weeks) negative | TD50 (rat, strain Sprague-Dawley, both sexes, in feed, site: any site (literature study), lesion: malignant tumor, dosed 130 weeks, study length 130 weeks) 4100 mg/kg/day | carcinogen call (rat, strain Sprague-Dawley, both sexes, in feed, site: urinary bladder, lesion: one or several types, types not named, dosed 130 weeks, study length 130 weeks) negative | carcinogen call (rat, strain Sprague-Dawley, males, in feed, site: urinary bladder, lesion: carcinoma, dosed 80 weeks, study length 80 weeks) negative | carcinogen call (rat, strain Sprague-Dawley, males, in feed, site: urinary bladder, lesion: one or several types, types not named, dosed 52 weeks, study length 52 weeks) negative | carcinogen call (rat, strain Wistar, males, in feed, site: urinary bladder, lesion: one or several types, types not named, dosed 52 weeks, study length 52 weeks) negative
active: TD50 (rat, strain ACI, males, in feed, site: urinary bladder, lesion: papilloma, dosed 52 weeks, study length 52 weeks) 1110 mg/kg/day | TD50 (rat, strain ACI, males, in feed, site: urinary bladder, lesion: transitional-cell carcinoma, dosed 52 weeks, study length 52 weeks) 3710 mg/kg/day | TD50 (rat, strain Charles River CD (Sprague-Dawley), males, in feed, site: urinary bladder, lesion: transitional-cell carcinoma, dosed 142 weeks, study length 142 weeks) 31100 mg/kg/day | TD50 (rat, strain Charles River CD (Sprague-Dawley), males, in feed, site: urinary bladder, lesion: transitional-cell papilloma, dosed 142 weeks, study length 142 weeks) 30800 mg/kg/day | TD50 (rat, strain Fischer 344, males, in feed, site: urinary bladder, lesion: papilloma, dosed 104 weeks, study length 104 weeks) 54100 mg/kg/day
155000 mg/kg/day: TD50 (rat, strain Charles River CD (Sprague-Dawley), females, in feed, site: liver, lesion: biliary cystadenoma, dosed 142 weeks, study length 142 weeks) | TD50 (rat, strain Charles River CD (Sprague-Dawley), females, in feed, site: liver, lesion: neoplastic nodule, dosed 142 weeks, study length 142 weeks)
43.3 mg/kg/day: TD50 (monkey, strain Rhesus [Macaca mulatta], both sexes, in feed, site: thyroid gland, lesion: lymphoma, dosed 1221 weeks, study length 1221 weeks)
610 mg/kg/day: TD50 (monkey, strain Rhesus [Macaca mulatta], both sexes, in feed, site: any site (literature study), lesion: malignant tumor, dosed 1221 weeks, study length 1221 weeks)
125000 mg/kg/day: TD50 (rat, strain Wistar, both sexes, in feed, site: urinary bladder, lesion: one or several types, types not named, dosed 104 weeks, study length 104 weeks)
613 mg/kg/day: TD50 (rat, strain Fischer, males, in feed, site: testis, lesion: interstitial-cell tumor, dosed 77 weeks, study length 98 weeks)

CCCCCCCCCCCCN(C)N=O
0.97 mg/kg/day: TD50 (rat, strain Fischer 344, males, by gavage, site: all sites, lesion: leukemia, dosed 30 weeks, study length 112 weeks)
1.32 mg/kg/day: TD50 (rat, strain Fischer 344, females, by gavage, site: lung, lesion: one or several types, types not named, dosed 30 weeks, study length 65 weeks)
2.75 mg/kg/day: TD50 (rat, strain Fischer 344, males, by gavage, site: pancreatic islets, lesion: islet-cell carcinoma, dosed 30 weeks, study length 112 weeks)
active: TD50 (rat, strain Fischer 344, females, by gavage, site: urinary bladder, lesion: one or several types, types not named, dosed 30 weeks, study length 65 weeks) 0.656 mg/kg/day | carcinogen call (rat, strain Fischer 344, males, by gavage, site: any site (literature study), lesion: several types, types named in the paper, dosed 30 weeks, study length 112 weeks) positive | TD50 (rat, strain Fischer 344, males, by gavage, site: forestomach, lesion: carcinoma, dosed 30 weeks, study length 112 weeks) 5.07 mg/kg/day | TD50 (rat, strain Fischer 344, males, by gavage, site: forestomach, lesion: papilloma, dosed 30 weeks, study length 112 weeks) 13.9 mg/kg/day | TD50 (rat, strain Fischer 344, males, by gavage, site: liver, lesion: hepatocellular carcinoma, dosed 30 weeks, study length 112 weeks) 8.98 mg/kg/day | TD50 (rat, strain Fischer 344, males, by gavage, site: lung, lesion: adenocarcinoma, dosed 30 weeks, study length 112 weeks) 6.54 mg/kg/day | TD50 (rat, strain Fischer 344, males, by gavage, site: lung, lesion: adenoma, dosed 30 weeks, study length 112 weeks) 28.5 mg/kg/day | carcinogen call (rat, strain Fischer 344, males, by gavage, site: urinary bladder, lesion: transitional-cell carcinoma, dosed 28 weeks, study length 66 weeks) positive | TD50 (rat, strain Fischer 344, males, by gavage, site: urinary bladder, lesion: transitional-cell carcinoma, dosed 30 weeks, study length 112 weeks) 0.487 mg/kg/day

CC(CO)OC(C)CO (configuration not stated) (tested in a mixture with another compound)
18100 mg/kg/day: TD50 (mouse, strain B6C3F1, males, in drinking water, site: lung, lesion: alveolar/bronchiolar adenoma + alveolar/bronchiolar carcinoma, dosed 104 weeks, study length 104 weeks)
31800 mg/kg/day: TD50 (mouse, strain B6C3F1, females, in drinking water, site: lung, lesion: alveolar/bronchiolar adenoma + alveolar/bronchiolar carcinoma, dosed 104 weeks, study length 104 weeks)
68200 mg/kg/day: TD50 (rat, strain Fischer 344, males, in drinking water, site: liver, lesion: hepatocellular adenoma + hepatoblastoma + hepatocellular carcinoma, dosed 104 weeks, study length 102 weeks)
inactive: carcinogen call (mouse, strain B6C3F1, females, in drinking water, site: any site (literature study), lesion: several types, types named in the paper, dosed 104 weeks, study length 104 weeks) negative | TD50 (mouse, strain B6C3F1, males, in drinking water, site: any site (literature study), lesion: several types, types named in the paper, dosed 104 weeks, study length 104 weeks) 24500 mg/kg/day | carcinogen call (rat, strain Fischer 344, females, in drinking water, site: any site (literature study), lesion: several types, types named in the paper, dosed 104 weeks, study length 104 weeks) negative | TD50 (rat, strain Fischer 344, males, in drinking water, site: any site (literature study), lesion: several types, types named in the paper, dosed 104 weeks, study length 102 weeks) 274 mg/kg/day

CC(=O)OC(OC(C)=O)c1ccc([N+](=O)[O-])o1
inactive: carcinogen call (rat, strain Holtzman albino (Sprague-Dawley derived), females, in feed, site: mammary tissue, wider than the gland, lesion: one or several types, types not named, dosed 36 weeks, study length 54 weeks) negative | TD50 (rat, strain Holtzman albino (Sprague-Dawley derived), females, in feed, site: mammary tissue, wider than the gland, lesion: one or several types, types not named, dosed 44 weeks, study length 60 weeks) 105 mg/kg/day

O=S(O)O
inactive: TD50 (mouse, strain ICR/Jcl, females, in drinking water, site: liver, lesion: hemangioendothelial sarcoma, dosed 104 weeks, study length 104 weeks) 204000 mg/kg/day | TD50 (mouse, strain ICR/Jcl, females, in drinking water, site: lung, lesion: adenocarcinoma, dosed 104 weeks, study length 104 weeks) 100000 mg/kg/day | TD50 (mouse, strain ICR/Jcl, females, in drinking water, site: lung, lesion: adenoma, dosed 104 weeks, study length 104 weeks) 33600 mg/kg/day | carcinogen call (mouse, strain ICR/Jcl, males, in drinking water, site: liver, lesion: one or several types, types not named, dosed 104 weeks, study length 104 weeks) negative | TD50 (mouse, strain ICR/Jcl, males, in drinking water, site: lung, lesion: adenocarcinoma, dosed 104 weeks, study length 104 weeks) 84800 mg/kg/day | TD50 (mouse, strain ICR/Jcl, males, in drinking water, site: lung, lesion: adenoma, dosed 104 weeks, study length 104 weeks) 84800 mg/kg/day
